{"source": "ChEMBL document CHEMBL4190322", "about": "“Structure-based development of novel triazoles and related thiazolotriazoles as anticancer agents and Cdc25A/B phosphatase inhibitors. Synthesis, in vitro biological evaluation, molecular docking and in silico ADME-T studies” (Eur J Med Chem, 2017)", "type_in_all_cases": "functional", "key": {"[1]": {"system": "786-0", "assay": "Growth inhibition of human 786-0 cells at 10 uM after 48 hrs by SRB assay relative to control"}, "[2]": {"system": "OVCAR-8", "assay": "Growth inhibition of human OVCAR8 cells at 10 uM after 48 hrs by SRB assay relative to control"}, "[3]": {"system": "UACC-62", "assay": "Growth inhibition of human UACC62 cells at 10 uM after 48 hrs by SRB assay relative to control", "details": "UACC-62, 48 h, read-out: GI"}, "[4]": {"system": "HCT-116", "assay": "Growth inhibition of human HCT116 cells at 10 uM after 48 hrs by SRB assay relative to control", "details": "HCT-116, 48 h, read-out: GI"}, "[5]": {"system": "UO-31", "assay": "Growth inhibition of human UO31 cells at 10 uM after 48 hrs by SRB assay relative to control", "details": "UO-31, 48 h, read-out: GI"}, "[6]": {"system": "NCI-H226", "assay": "Growth inhibition of human NCI-H226 cells at 10 uM after 48 hrs by SRB assay relative to control", "details": "NCI-H226, 48 h, read-out: GI"}, "[7]": {"system": "PC-3", "assay": "Growth inhibition of human PC3 cells at 10 uM after 48 hrs by SRB assay relative to control", "details": "PC-3, 48 h, read-out: GI"}, "[8]": {"system": "SK-MEL-2", "assay": "Growth inhibition of human SK-MEL-2 cells at 10 uM after 48 hrs by SRB assay relative to control", "details": "SK-MEL-2, 48 h, read-out: GI"}, "[9]": {"system": "Malme-3M", "assay": "Growth inhibition of human MALME-3M cells at 10 uM after 48 hrs by SRB assay relative to control"}, "[10]": {"system": "U-251", "assay": "Growth inhibition of human U251 cells at 10 uM after 48 hrs by SRB assay relative to control", "details": "U-251, 48 h, read-out: GI"}, "[11]": {"system": "MDA-MB-468", "assay": "Growth inhibition of human MDA-MB-468 cells at 10 uM after 48 hrs by SRB assay relative to control"}, "[12]": {"system": "SK-MEL-5", "assay": "Growth inhibition of human SK-MEL-5 cells at 10 uM after 48 hrs by SRB assay relative to control", "details": "SK-MEL-5, 48 h, read-out: GI"}, "[13]": {"system": "K562", "assay": "Growth inhibition of human K562 cells at 10 uM after 48 hrs by SRB assay relative to control", "details": "K562, 48 h, read-out: GI"}, "[14]": {"system": "SK-OV-3", "assay": "Growth inhibition of human SKOV3 cells at 10 uM after 48 hrs by SRB assay relative to control", "details": "SK-OV-3, 48 h, read-out: GI"}, "[15]": {"system": "RPMI-8226", "assay": "Growth inhibition of human RPMI8226 cells at 10 uM after 48 hrs by SRB assay relative to control", "details": "RPMI-8226, 48 h, read-out: GI"}, "[16]": {"system": "NCI/ADR-RES", "assay": "Growth inhibition of human NCI/ADR-RES cells at 10 uM after 48 hrs by SRB assay relative to control", "details": "read-out: GI"}, "[17]": {"system": "OVCAR-3", "assay": "Growth inhibition of human OVCAR3 cells at 10 uM after 48 hrs by SRB assay relative to control", "details": "OVCAR-3, 48 h, read-out: GI"}, "[18]": {"system": "SNB-75", "assay": "Growth inhibition of human SNB75 cells at 10 uM after 48 hrs by SRB assay relative to control", "details": "SNB-75, 48 h, read-out: GI"}, "[19]": {"system": "KM12", "assay": "Growth inhibition of human KM12 cells at 10 uM after 48 hrs by SRB assay relative to control", "details": "KM12, 48 h, read-out: GI"}, "[20]": {"system": "NCI-H23", "assay": "Growth inhibition of human NCI-H23 cells at 10 uM after 48 hrs by SRB assay relative to control", "details": "NCI-H23, 48 h, read-out: GI"}, "[21]": {"system": "LOX IMVI", "assay": "Growth inhibition of human LOXIMVI cells at 10 uM after 48 hrs by SRB assay relative to control", "details": "read-out: GI"}, "[22]": {"system": "MCF7", "assay": "Growth inhibition of human MCF7 cells at 10 uM after 48 hrs by SRB assay relative to control", "details": "MCF7, 48 h, read-out: GI"}, "[23]": {"system": "HL-60", "assay": "Growth inhibition of human HL60 cells at 10 uM after 48 hrs by SRB assay relative to control"}, "[24]": {"system": "HT-29", "assay": "Growth inhibition of human HT-29 cells at 10 uM after 48 hrs by SRB assay relative to control"}, "[25]": {"system": "NCI-H522", "assay": "Growth inhibition of human NCI-H522 cells at 10 uM after 48 hrs by SRB assay relative to control", "details": "NCI-H522, 48 h, read-out: GI"}, "[26]": {"system": "MOLT-4", "assay": "Growth inhibition of human MOLT4 cells at 10 uM after 48 hrs by SRB assay relative to control", "details": "MOLT-4, 48 h, read-out: GI"}, "[27]": {"system": "RXF 393", "assay": "Growth inhibition of human RXF393 cells at 10 uM after 48 hrs by SRB assay relative to control"}, "[28]": {"system": "SNB-19", "assay": "Growth inhibition of human SNB19 cells at 10 uM after 48 hrs by SRB assay relative to control"}, "[29]": {"system": "SF-268", "assay": "Growth inhibition of human SF268 cells at 10 uM after 48 hrs by SRB assay relative to control", "details": "SF-268, 48 h, read-out: GI"}, "[30]": {"system": "A498", "assay": "Growth inhibition of human A498 cells at 10 uM after 48 hrs by SRB assay relative to control", "details": "A498, 48 h, read-out: GI"}, "[31]": {"system": "HOP-92", "assay": "Growth inhibition of human HOP92 cells at 10 uM after 48 hrs by SRB assay relative to control", "details": "HOP-92, 48 h, read-out: GI"}, "[32]": {"system": "SR", "assay": "Growth inhibition of human SR cells at 10 uM after 48 hrs by SRB assay relative to control", "details": "read-out: GI"}, "[33]": {"system": "OVCAR-4", "assay": "Growth inhibition of human OVCAR4 cells at 10 uM after 48 hrs by SRB assay relative to control", "details": "OVCAR-4, 48 h, read-out: GI"}, "[34]": {"system": "NCI-H322M", "assay": "Growth inhibition of human NCI-H322M cells at 10 uM after 48 hrs by SRB assay relative to control", "details": "read-out: GI"}, "[35]": {"system": "CAKI-1", "assay": "Growth inhibition of human Caki1 cells at 10 uM after 48 hrs by SRB assay relative to control", "details": "CAKI-1, 48 h, read-out: GI"}, "[36]": {"system": "UACC-257", "assay": "Growth inhibition of human UACC257 cells at 10 uM after 48 hrs by SRB assay relative to control"}, "[37]": {"system": "A549", "assay": "Growth inhibition of human A549 cells at 10 uM after 48 hrs by SRB assay relative to control", "details": "A549, 48 h, read-out: GI"}, "[38]": {"system": "Hs-578T", "assay": "Growth inhibition of human Hs 578T cells at 10 uM after 48 hrs by SRB assay relative to control", "details": "read-out: GI"}, "[39]": {"system": "HOP-62", "assay": "Growth inhibition of human HOP62 cells at 10 uM after 48 hrs by SRB assay relative to control", "details": "HOP-62, 48 h, read-out: GI"}, "[40]": {"system": "CCRF-CEM", "assay": "Growth inhibition of human CCRF-CEM cells at 10 uM after 48 hrs by SRB assay relative to control", "details": "read-out: GI"}}, "note": "The source made the active and inactive calls. The rule behind the calls is not given here."}
{"compound": "COc1ccc(Cc2nnc3sc(SCC(=O)c4ccc(Cl)cc4)nn23)cc1", "values": [{"measurement": "growth inhibition (GI)", "setting": "[1]", "value": "inactive"}, {"measurement": "growth inhibition (GI)", "setting": "[2]", "value": "inactive"}, {"measurement": "inhibition of growth at 10 µM", "setting": "[3]", "value": 1.72, "unit": "%"}, {"measurement": "inhibition of growth at 10 µM", "setting": "[4]", "value": 4, "unit": "%"}, {"measurement": "inhibition of growth at 10 µM", "setting": "[5]", "value": 22.3, "unit": "%"}, {"measurement": "inhibition of growth at 10 µM", "setting": "[6]", "value": 2, "unit": "%"}, {"measurement": "inhibition of growth at 10 µM", "setting": "[7]", "value": 25.8, "unit": "%"}, {"measurement": "inhibition of growth at 10 µM", "setting": "[8]", "value": 10, "unit": "%"}, {"measurement": "growth inhibition (GI)", "setting": "[9]", "value": "inactive"}, {"measurement": "inhibition of growth at 10 µM", "setting": "[10]", "value": 8.78, "unit": "%"}, {"measurement": "growth inhibition (GI)", "setting": "[11]", "value": "inactive"}, {"measurement": "inhibition of growth at 10 µM", "setting": "[12]", "value": 2.05, "unit": "%"}, {"measurement": "inhibition of growth at 10 µM", "setting": "[13]", "value": 10, "unit": "%"}, {"measurement": "inhibition of growth at 10 µM", "setting": "[14]", "value": 11.2, "unit": "%"}, {"measurement": "inhibition of growth at 10 µM", "setting": "[15]", "value": 8.67, "unit": "%"}, {"measurement": "inhibition of growth at 10 µM", "setting": "[16]", "value": 5.12, "unit": "%"}, {"measurement": "inhibition of growth at 10 µM", "setting": "[17]", "value": 3.88, "unit": "%"}, {"measurement": "inhibition of growth at 10 µM", "setting": "[18]", "value": 21.8, "unit": "%"}, {"measurement": "inhibition of growth at 10 µM", "setting": "[19]", "value": 5.4, "unit": "%"}, {"measurement": "inhibition of growth at 10 µM", "setting": "[20]", "value": 10.7, "unit": "%"}, {"measurement": "inhibition of growth at 10 µM", "setting": "[21]", "value": 9, "unit": "%"}, {"measurement": "inhibition of growth at 10 µM", "setting": "[22]", "value": 6.24, "unit": "%"}, {"measurement": "growth inhibition (GI)", "setting": "[23]", "value": "inactive"}, {"measurement": "growth inhibition (GI)", "setting": "[24]", "value": "inactive"}, {"measurement": "inhibition of growth at 10 µM", "setting": "[25]", "value": 17.7, "unit": "%"}, {"measurement": "inhibition of growth at 10 µM", "setting": "[26]", "value": 7.83, "unit": "%"}, {"measurement": "growth inhibition (GI)", "setting": "[27]", "value": "inactive"}, {"measurement": "growth inhibition (GI)", "setting": "[28]", "value": "inactive"}, {"measurement": "inhibition of growth at 10 µM", "setting": "[29]", "value": 5, "unit": "%"}, {"measurement": "inhibition of growth at 10 µM", "setting": "[30]", "value": 35.4, "unit": "%"}, {"measurement": "inhibition of growth at 10 µM", "setting": "[31]", "value": 32, "unit": "%"}, {"measurement": "inhibition of growth at 10 µM", "setting": "[32]", "value": 13.2, "unit": "%"}, {"measurement": "inhibition of growth at 10 µM", "setting": "[33]", "value": 2.26, "unit": "%"}, {"measurement": "inhibition of growth at 10 µM", "setting": "[34]", "value": 6.27, "unit": "%"}, {"measurement": "inhibition of growth at 10 µM", "setting": "[35]", "value": 17.5, "unit": "%"}, {"measurement": "growth inhibition (GI)", "setting": "[36]", "value": "inactive"}, {"measurement": "inhibition of growth at 10 µM", "setting": "[37]", "value": 1.3, "unit": "%"}, {"measurement": "inhibition of growth at 10 µM", "setting": "[38]", "value": 2.07, "unit": "%"}, {"measurement": "inhibition of growth at 10 µM", "setting": "[39]", "value": 7.5, "unit": "%"}, {"measurement": "inhibition of growth at 10 µM", "setting": "[40]", "value": 12.2, "unit": "%"}]}
